{"source": "patent US20250258179A1", "about": "“Method for Estimating Meal Component Bioavailability” (The Texas A&M University System, priority 2024, published 2025)", "origin": "cited, not measured here", "system": "critically ill patients", "conditions": "recently shown"}
{"molecule": "CC(C)(O)CC(=O)O", "note": "[HMB, hydroxy-methylbutyric acid]", "values": [{"measurement": "protein breakdown", "result": "reduction in protein breakdown"}]}
